The results in this text go back to patent publication US9676782B2, “Substituted pyrazolo[1,5-a]pyrazines as negative allosteric modulators of metabotropic glutamate receptor 3” (Vanderbilt University, priority 2014, dated 2017).

One experiment addresses rat mGlu5 (Rattus norvegicus (Rat), UniProt P31424). Kind of experiment: mGlu5 Ca2+ flux assay. The class given is cell-based. To be noted: for Emax at 30 µM: read-out: rat mGlu5 Glu max (%); for Fold selectivity (mGlu3 vs. mGlu5): ratio of rat mGlu5 EC50 or IC50 to rat mGlu3 IC50. The protocol:
(§1) The cells were grown overnight at 37° C. in the presence of 5% CO2. […] Dye was removed, 20 μL of assay buffer was added, and the plate was incubated for 5 minutes at room temperature. Ca^2+ flux was measured using the Functional Drug Screening System (FDSS7000, Hamamatsu, Japan). […] All test compounds were dissolved and diluted to a concentration of 10 mM in 100% DMSO. […] Calcium fluorescence measures were recorded as fold over basal fluorescence; raw data was then normalized to the maximal response to glutamate. […] The raw data file containing all time points was used as the data source in the analysis template. This was saved by the FDSS as a tab-delimited text file. Data were normalized using a static ratio function (F/F0) for each measurement of the total 360 values per well divided by each well's initial value. […] This is sufficient time to capture the peak amplitude of the cellular calcium response. […] EC50 values for test compounds were generated by fitting the normalized values versus the log of the test compound concentration (in mol/L) using a 4 parameter logistic equation where none of the parameters were fixed. Each of the three values collected at each concentration of test compound were weighted evenly.

The target in another experiment is rat mGlu3 (Rattus norvegicus (Rat), UniProt P31422). Kind of experiment: mGlu3 Ca2+ flux assay. It is filed as cell-based. Conditions: for remaining activity at 30 µM: amplitude of response at 30 μM test compound as % of maximal response to glutamate, read-out: rat mGlu3 Glu max (%); for IC50: read-out: rat mGlu3 IC50. The protocol:
as §1, with “for 10” for “for 5”

Setting [1] is: PAM, amplitude of response at 30 μM test compound as % of maximal response to glutamate.
The mark [2] stands for this setting: read-out: rat mGlu5 EC50 or IC50.
[3] abbreviates: NAM potency, decrease of glutamate EC80 response, >30,000 = no measurable activity, >10,000 = no plateau.

The structures appear in SMILES notation. Where two headings read alike, the source gives them in different places.

Sequence of rat mGlu5 (P31424 21-1203): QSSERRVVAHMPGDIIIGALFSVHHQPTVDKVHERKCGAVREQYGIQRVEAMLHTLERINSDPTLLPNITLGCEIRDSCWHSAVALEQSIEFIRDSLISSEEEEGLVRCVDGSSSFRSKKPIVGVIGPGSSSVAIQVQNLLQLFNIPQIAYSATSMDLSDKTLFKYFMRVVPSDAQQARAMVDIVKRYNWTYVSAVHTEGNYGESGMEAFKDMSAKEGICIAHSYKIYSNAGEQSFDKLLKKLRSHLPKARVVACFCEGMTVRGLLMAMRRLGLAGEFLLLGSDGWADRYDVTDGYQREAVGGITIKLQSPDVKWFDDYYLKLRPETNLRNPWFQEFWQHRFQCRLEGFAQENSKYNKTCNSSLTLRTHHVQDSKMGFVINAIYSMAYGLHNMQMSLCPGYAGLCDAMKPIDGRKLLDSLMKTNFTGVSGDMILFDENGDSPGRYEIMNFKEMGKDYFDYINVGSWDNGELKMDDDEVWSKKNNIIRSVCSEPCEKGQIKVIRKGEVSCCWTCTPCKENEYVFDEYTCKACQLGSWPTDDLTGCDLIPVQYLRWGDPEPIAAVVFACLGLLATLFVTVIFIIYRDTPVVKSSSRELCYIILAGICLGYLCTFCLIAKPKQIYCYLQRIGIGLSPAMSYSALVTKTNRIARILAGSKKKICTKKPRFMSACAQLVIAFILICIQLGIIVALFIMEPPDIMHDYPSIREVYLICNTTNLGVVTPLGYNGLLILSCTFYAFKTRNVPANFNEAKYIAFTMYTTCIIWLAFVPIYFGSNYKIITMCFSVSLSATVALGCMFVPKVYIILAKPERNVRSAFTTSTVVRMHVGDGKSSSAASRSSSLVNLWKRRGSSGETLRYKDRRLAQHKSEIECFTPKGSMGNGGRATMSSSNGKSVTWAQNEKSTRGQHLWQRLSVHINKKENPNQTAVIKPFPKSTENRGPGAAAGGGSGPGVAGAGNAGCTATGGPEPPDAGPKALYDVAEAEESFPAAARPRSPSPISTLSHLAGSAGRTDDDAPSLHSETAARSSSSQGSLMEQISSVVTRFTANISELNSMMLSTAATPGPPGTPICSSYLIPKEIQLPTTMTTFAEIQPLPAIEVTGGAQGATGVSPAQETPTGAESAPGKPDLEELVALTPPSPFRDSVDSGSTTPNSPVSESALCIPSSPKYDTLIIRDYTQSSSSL
Sequence of rat mGlu3 (P31422 23-879): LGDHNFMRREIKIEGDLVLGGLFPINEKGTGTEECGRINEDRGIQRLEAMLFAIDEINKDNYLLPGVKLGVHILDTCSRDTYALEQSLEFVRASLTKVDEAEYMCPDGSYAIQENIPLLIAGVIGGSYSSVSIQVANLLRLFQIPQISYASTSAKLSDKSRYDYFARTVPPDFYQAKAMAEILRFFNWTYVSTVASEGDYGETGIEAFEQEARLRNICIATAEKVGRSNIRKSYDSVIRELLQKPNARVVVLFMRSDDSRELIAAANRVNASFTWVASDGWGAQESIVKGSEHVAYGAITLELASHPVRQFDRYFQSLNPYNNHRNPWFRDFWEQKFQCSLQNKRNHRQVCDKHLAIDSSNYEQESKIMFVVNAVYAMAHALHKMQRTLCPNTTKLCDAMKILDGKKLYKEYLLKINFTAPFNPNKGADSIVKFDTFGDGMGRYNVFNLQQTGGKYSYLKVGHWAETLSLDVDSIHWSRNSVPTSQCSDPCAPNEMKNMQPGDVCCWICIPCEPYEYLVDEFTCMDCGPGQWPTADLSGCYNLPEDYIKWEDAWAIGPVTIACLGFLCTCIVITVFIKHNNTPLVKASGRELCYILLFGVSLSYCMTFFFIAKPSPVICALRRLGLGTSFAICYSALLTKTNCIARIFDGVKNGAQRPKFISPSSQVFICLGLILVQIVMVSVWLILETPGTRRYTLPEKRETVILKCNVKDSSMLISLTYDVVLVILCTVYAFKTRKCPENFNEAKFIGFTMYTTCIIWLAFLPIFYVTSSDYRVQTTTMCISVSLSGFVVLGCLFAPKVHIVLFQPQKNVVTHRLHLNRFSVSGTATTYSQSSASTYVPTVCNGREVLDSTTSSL

For the compound `C[C@H]1CN(c2ccc(F)cc2)C(=O)c2cc(CNc3cccc(Cl)c3)nn21` [Compound 49, (S)-2-(((3-chlorophenyl)amino)methyl)-5-(4-fluorophenyl)-7-methyl-6,7-dihydropyrazolo[1,5-a]pyrazin-4(5H)-one], the Emax at 30 µM at rat mGlu5 (setting [1]) is 76.5%. For the same compound, the “Fold selectivity (mGlu3 vs. mGlu5)” value on rat mGlu5 was found to be 4.45. Besides, the EC50 (commonly the midpoint of the concentration-response curve) at rat mGlu5 (setting [2]) turned out to be 5920 nM. Besides, at rat mGlu3, the remaining activity at 30 µM is -0.54% and the IC50 (usually the concentration needed to halve the response being measured) worked out at 1330 nM.

For the compound `O=C1c2cc(CNc3ccc(OC(F)F)cc3F)nn2CCN1c1ccccn1` [Compound 151, 2-(((4-(difluoromethoxy)-2-fluorophenyl)amino)methyl)-5-(pyridin-2-yl)-6,7-dihydropyrazolo[1,5-a]pyrazin-4(5H)-one], the “Fold selectivity (mGlu3 vs. mGlu5)” value on rat mGlu5 is reported as over 31. The EC50 at rat mGlu5 (setting [2]) was over 30000 nM. For the same compound, at rat mGlu3 (setting [3]), the IC50 was determined as 943 nM. Also, the remaining activity at 30 µM on rat mGlu3 came out at 1.14%.

In the case of `C[C@@H]1CN(c2ccc(F)cc2)C(=O)c2cc(CNc3cc(F)ccc3F)nn21` [Compound 70, (R)-2-(((2,5-difluorophenyl)amino)methyl)-5-(4-fluorophenyl)-7-methyl-6,7-dihydropyrazolo[1,5-a]pyrazin-4(5H)-one], on rat mGlu5 (setting [1]), the Emax at 30 µM was 57.5%. Also, the “Fold selectivity (mGlu3 vs. mGlu5)” value on rat mGlu5 is listed as over 8.7. Also, the EC50 on rat mGlu5 (setting [2]) was over 10000 nM. Besides, the IC50 at rat mGlu3 (setting [3]) is 1140 nM. Moreover, the remaining activity at 30 µM on rat mGlu3 is 2.67%.

Take `O=C1c2cc(CNc3ccc(OC(F)F)cc3F)nn2CCN1c1ccc(Cl)cn1` [Compound 148, 5-(5-chloropyridin-2-yl)-2-(((4-(difluoromethoxy)-2-fluorophenyl)amino)methyl)-6,7-dihydropyrazolo[1,5-a]pyrazin-4(5H)-one]: the “Fold selectivity (mGlu3 vs. mGlu5)” value at rat mGlu5 is recorded as over 32. Besides, at rat mGlu5 (setting [2]), the EC50 is over 30000 nM. For the same compound, the IC50 on rat mGlu3 (setting [3]) came out at 930 nM. Besides, the remaining activity at 30 µM on rat mGlu3 was 3.97%.

Consider `COc1ccc(N(C)Cc2cc3n(n2)CCN(c2cc(Cl)cc(OC)c2)C3=O)cc1` [Compound 134, 5-(3-chloro-5-methoxyphenyl)-2-(((4-methoxyphenyl)(methyl)amino)methyl)-6,7-dihydropyrazolo[1,5-a]pyrazin-4(5H)-one], for which the “Fold selectivity (mGlu3 vs. mGlu5)” value at rat mGlu5 was over 17. The EC50 at rat mGlu5 (setting [2]) is over 30000 nM. Moreover, the IC50 on rat mGlu3 (setting [3]) was found to be 1710 nM. Further, the remaining activity at 30 µM at rat mGlu3 came out at 1.77%.

In the case of `N#Cc1ccc(NCc2cc3n(n2)CCN(c2ccc(F)cc2)C3=O)cc1` [Compound 18, 4-(((5-(4-fluorophenyl)-4-oxo-4,5,6,7-tetrahydropyrazolo[1,5-a]pyrazin-2-yl)methyl)amino)benzonitrile], on rat mGlu5, the “Fold selectivity (mGlu3 vs. mGlu5)” value is reported as over 6.2. Besides, the EC50 at rat mGlu5 (setting [2]) was over 30000 nM. Also, on rat mGlu3 (setting [3]), the IC50 came out at 4780 nM. The remaining activity at 30 µM on rat mGlu3 was 1.71%.

As to `Cc1ccc(NCc2cc3n(n2)CCN(c2ccc(F)cc2)C3=O)cc1` [Compound 14, 5-(4-fluorophenyl)-2-((p-tolylamino)methyl)-6,7-dihydropyrazolo[1,5-a]pyrazin-4(5H)-one], the “Fold selectivity (mGlu3 vs. mGlu5)” value on rat mGlu5 was over 19. Moreover, the EC50 at rat mGlu5 (setting [2]) was over 30000 nM. Also, the IC50 on rat mGlu3 (setting [3]) came to 1540 nM. Further, at rat mGlu3, the remaining activity at 30 µM was -11.8%.

In the case of `C[C@@H]1CN(c2ccc(F)cc2)C(=O)c2cc(CNc3ccc(F)cc3)nn21` [Compound 56, (R)-5-(4-fluorophenyl)-2-(((4-fluorophenyl)amino)methyl)-7-methyl-6,7-dihydropyrazolo[1,5-a]pyrazin-4(5H)-one], the “Fold selectivity (mGlu3 vs. mGlu5)” value on rat mGlu5 was over 25. Also, the EC50 at rat mGlu5 (setting [2]) was over 30000 nM. Also, at rat mGlu3 (setting [3]), the IC50 stood at 1160 nM. Also, on rat mGlu3, the remaining activity at 30 µM stood at 2.97%.

On to `Cc1ccccc1NCc1cc2n(n1)[C@@H](C)CN(c1ccc(F)cc1)C2=O` [Compound 45, (S)-5-(4-fluorophenyl)-7-methyl-2-((o-tolylamino)methyl)-6,7-dihydropyrazolo[1,5-a]pyrazin-4(5H)-one], for which the Emax at 30 µM at rat mGlu5 (setting [1]) amounted to 37.1%. Moreover, at rat mGlu5, the “Fold selectivity (mGlu3 vs. mGlu5)” value is reported as over 2.9. The 50% effective concentration (EC50) on rat mGlu5 (setting [2]) was over 10000 nM. Moreover, the concentration for half-maximal inhibition (IC50) at rat mGlu3 (setting [3]) came to 3340 nM. Moreover, the remaining activity at 30 µM at rat mGlu3 was determined as 1.32%.

Take `CC(Nc1ccc(F)cc1)c1cc2n(n1)CCN(c1ccc(F)cc1)C2=O` (centres unmarked) [Compound 171, 5-(4-fluorophenyl)-2-(1-((4-fluorophenyl)amino)ethyl)-6,7-dihydropyrazolo[1,5-a]pyrazin-4(5H)-one]: the “Fold selectivity (mGlu3 vs. mGlu5)” value on rat mGlu5 is reported as over 13. Also, the EC50 at rat mGlu5 (setting [2]) is over 30000 nM. The IC50 at rat mGlu3 (setting [3]) is 2150 nM. In addition, the remaining activity at 30 µM at rat mGlu3 stood at 0.39%.

As for `COc1ccc(N(C)Cc2cc3n(n2)CCN(c2cccc(Cl)c2F)C3=O)cc1` [Compound 135, 5-(3-chloro-2-fluorophenyl)-2-(((4-methoxyphenyl)(methyl)amino)methyl)-6,7-dihydropyrazolo[1,5-a]pyrazin-4(5H)-one], the “Fold selectivity (mGlu3 vs. mGlu5)” value on rat mGlu5 is on record as over 24. For the same compound, the EC50 at rat mGlu5 (setting [2]) is over 30000 nM. In addition, the IC50 at rat mGlu3 (setting [3]) was 1210 nM. The remaining activity at 30 µM at rat mGlu3 was 7.26%.

Consider `COc1ccc(N(C)Cc2cc3n(n2)CCN(c2cccc(Cl)c2)C3=O)cc1` [Compound 98, 5-(3-chlorophenyl)-2-(((4-methoxyphenyl)(methyl)amino)methyl)-6,7-dihydropyrazolo[1,5-a]pyrazin-4(5H)-one], for which the “Fold selectivity (mGlu3 vs. mGlu5)” value at rat mGlu5 is listed as over 44. In addition, on rat mGlu5 (setting [2]), the EC50 is over 30000 nM. At rat mGlu3 (setting [3]), the IC50 came to 668 nM. Besides, at rat mGlu3, the remaining activity at 30 µM is 1.53%.

For the compound `O=C1c2cc(CNc3cccc(Cl)c3)nn2CCN1c1ccc(F)cc1` [Compound 9, 2-(((3-chlorophenyl)amino)methyl)-5-(4-fluorophenyl)-6,7-dihydropyrazolo[1,5-a]pyrazin-4(5H)-one], the Emax at 30 µM at rat mGlu5 (setting [1]) came to 82.8%. On rat mGlu5, the “Fold selectivity (mGlu3 vs. mGlu5)” value is 2.74. Besides, the EC50 on rat mGlu5 (setting [2]) was 3320 nM. Further, the IC50 at rat mGlu3 (setting [3]) is 1210 nM. Moreover, the remaining activity at 30 µM at rat mGlu3 stood at 2.95%.

Turning to `C[C@@H]1CN(c2ccc(F)cc2)C(=O)c2cc(CNc3ccc(F)c(F)c3)nn21` [Compound 77, (R)-2-(((3,4-difluorophenyl)amino)methyl)-5-(4-fluorophenyl)-7-methyl-6,7-dihydropyrazolo[1,5-a]pyrazin-4(5H)-one], the “Fold selectivity (mGlu3 vs. mGlu5)” value on rat mGlu5 is over 19. In addition, the EC50 at rat mGlu5 (setting [2]) is over 30000 nM. The IC50 at rat mGlu3 (setting [3]) is 1570 nM. The remaining activity at 30 µM at rat mGlu3 was 3.77%.

With `C[C@@H]1CN(c2ccc(F)cc2)C(=O)c2cc(CNc3cccc(F)c3)nn21` [Compound 46, (R)-5-(4-fluorophenyl)-2-(((3-fluorophenyl)amino)methyl)-7-methyl-6,7-dihydropyrazolo[1,5-a]pyrazin-4(5H)-one], the Emax at 30 µM on rat mGlu5 (setting [1]) amounted to 24.6%. Besides, at rat mGlu5, the “Fold selectivity (mGlu3 vs. mGlu5)” value is over 8.2. Besides, the EC50 on rat mGlu5 (setting [2]) was over 10000 nM. Also, at rat mGlu3, the remaining activity at 30 µM turned out to be 0.58% and the IC50 worked out at 1210 nM.

With `COc1ccc(N(C)Cc2cc3n(n2)CCN(c2cc(Cl)ccc2F)C3=O)cc1` [Compound 127, 5-(5-chloro-2-fluorophenyl)-2-(((4-methoxyphenyl)(methyl)amino)methyl)-6,7-dihydropyrazolo[1,5-a]pyrazin-4(5H)-one], the IC50 on rat mGlu5 (compound noted as NAM or partial antagonist (PAnt) at mGlu5, glutamate EC80, read-out: rat mGlu5 EC50 or IC50) is over 10000 nM; on rat mGlu3 (setting [3]), 1260 nM. In addition, at rat mGlu5 (compound noted as NAM or partial antagonist (PAnt) at mGlu5, response at 30 μM as % of maximal glutamate response), the Emax at 30 µM came out at 54.6%. For the same compound, the “Fold selectivity (mGlu3 vs. mGlu5)” value at rat mGlu5 is reported as over 7.9. On rat mGlu3, the remaining activity at 30 µM is 2.32%.

`C[C@@H]1CN(c2ccc(F)cc2)C(=O)c2cc(CNc3ccc(CC#N)cc3)nn21` [Compound 66, (R)-2-(4-(((5-(4-fluorophenyl)-7-methyl-4-oxo-4,5,6,7-tetrahydropyrazolo[1,5-a]pyrazin-2-yl)methyl)amino)phenyl)acetonitrile]: at rat mGlu5, the “Fold selectivity (mGlu3 vs. mGlu5)” value is over 20. For the same compound, on rat mGlu5 (setting [2]), the EC50 is over 30000 nM. For the same compound, the IC50 on rat mGlu3 (setting [3]) was found to be 1460 nM. Further, the remaining activity at 30 µM on rat mGlu3 turned out to be 0.95%.
